# Experimental data from US12371436B2, “Substituted benzodiazoliums as ENaC inhibitors” (ENTERPRISE THERAPEUTICS LIMITED, priority 2016, dated 2025).
# Biological target: T1, ENaC (Homo sapiens, UniProt P37088+P51168+P51170)
# T1 construct: host or cells: primary human bronchial epithelial cells (HBECs) differentiated at air-liquid interface
# T1 sequence (P37088 1-669): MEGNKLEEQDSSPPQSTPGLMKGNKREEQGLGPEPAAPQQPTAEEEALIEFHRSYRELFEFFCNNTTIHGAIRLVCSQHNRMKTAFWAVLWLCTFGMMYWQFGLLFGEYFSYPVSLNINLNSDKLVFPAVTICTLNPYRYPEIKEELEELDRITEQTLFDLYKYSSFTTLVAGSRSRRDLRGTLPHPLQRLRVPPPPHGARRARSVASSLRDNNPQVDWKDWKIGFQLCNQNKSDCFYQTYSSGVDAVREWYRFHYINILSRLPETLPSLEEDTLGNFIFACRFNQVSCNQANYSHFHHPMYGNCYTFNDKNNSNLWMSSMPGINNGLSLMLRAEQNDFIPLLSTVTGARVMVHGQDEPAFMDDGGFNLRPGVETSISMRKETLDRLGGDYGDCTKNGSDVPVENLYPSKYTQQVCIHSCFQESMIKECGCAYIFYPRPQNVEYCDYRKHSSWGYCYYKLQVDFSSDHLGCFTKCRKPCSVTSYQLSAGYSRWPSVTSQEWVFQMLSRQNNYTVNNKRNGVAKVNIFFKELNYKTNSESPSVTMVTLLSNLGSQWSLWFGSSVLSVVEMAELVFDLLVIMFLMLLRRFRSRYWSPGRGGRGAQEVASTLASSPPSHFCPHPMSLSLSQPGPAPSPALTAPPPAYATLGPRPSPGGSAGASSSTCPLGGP
# T1 sequence (P51168 1-640): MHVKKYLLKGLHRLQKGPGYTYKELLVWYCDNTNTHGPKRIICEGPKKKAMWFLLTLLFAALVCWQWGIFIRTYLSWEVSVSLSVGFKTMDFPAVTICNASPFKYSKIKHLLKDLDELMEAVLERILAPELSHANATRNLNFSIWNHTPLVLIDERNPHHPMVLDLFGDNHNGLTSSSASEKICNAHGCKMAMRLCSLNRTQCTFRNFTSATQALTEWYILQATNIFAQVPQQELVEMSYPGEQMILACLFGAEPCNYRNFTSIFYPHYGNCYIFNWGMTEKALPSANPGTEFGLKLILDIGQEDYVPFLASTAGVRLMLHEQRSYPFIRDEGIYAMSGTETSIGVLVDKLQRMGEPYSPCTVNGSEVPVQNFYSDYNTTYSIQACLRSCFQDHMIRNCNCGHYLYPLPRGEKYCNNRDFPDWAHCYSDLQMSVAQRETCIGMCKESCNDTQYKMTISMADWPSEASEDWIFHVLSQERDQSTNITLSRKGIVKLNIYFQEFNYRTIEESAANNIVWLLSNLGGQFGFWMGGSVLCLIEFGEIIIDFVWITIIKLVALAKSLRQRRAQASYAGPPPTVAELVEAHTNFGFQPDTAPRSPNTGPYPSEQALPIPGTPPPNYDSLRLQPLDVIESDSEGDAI
# T1 sequence (P51170 1-649): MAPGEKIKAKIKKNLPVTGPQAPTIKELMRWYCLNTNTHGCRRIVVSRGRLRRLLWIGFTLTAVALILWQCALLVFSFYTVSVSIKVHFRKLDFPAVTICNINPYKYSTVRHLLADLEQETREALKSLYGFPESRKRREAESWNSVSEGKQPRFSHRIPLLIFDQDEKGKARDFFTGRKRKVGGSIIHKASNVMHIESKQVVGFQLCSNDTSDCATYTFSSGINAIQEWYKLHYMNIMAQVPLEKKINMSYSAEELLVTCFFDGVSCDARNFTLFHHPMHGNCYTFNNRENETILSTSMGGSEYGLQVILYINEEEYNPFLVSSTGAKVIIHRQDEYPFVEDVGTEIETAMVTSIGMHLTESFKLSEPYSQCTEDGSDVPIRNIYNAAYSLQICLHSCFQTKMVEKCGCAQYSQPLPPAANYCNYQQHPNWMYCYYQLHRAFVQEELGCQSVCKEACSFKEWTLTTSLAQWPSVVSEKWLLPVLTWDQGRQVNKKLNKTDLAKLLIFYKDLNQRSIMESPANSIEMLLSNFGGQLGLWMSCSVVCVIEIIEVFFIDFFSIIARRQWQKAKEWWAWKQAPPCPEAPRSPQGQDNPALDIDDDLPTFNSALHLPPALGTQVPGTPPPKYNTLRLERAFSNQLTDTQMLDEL
# Assay: Short circuit current assay to determine ENaC blocker potency in human bronchial epithelial cells
# Format: cell-based
# Details: 50% inhibition of total amiloride-sensitive ISC, apical addition, read-out: Averages.ENaC IC50 (nM) Avg
# Protocol: Example 68—Short circuit current assay to determine ENaC blocker potency in human bronchial epithelial cells
# Human bronchial epithelial cells (HBECs) (Lonza, UK) were cultured using a modification of the method described by Coote et al, (2008). Cells were seeded into plastic T-75 flasks and grown in Bronchial Epithelial Cell Growth Medium (BEGM) (Lonza, UK) supplemented with bovine pituitary extract (52 ng/mL), hydrocortisone (0.5 μg/mL), human recombinant Epidermal Growth Factor (0.5 ng/mL), epinephrine (0.5 ng/mL), transferrin (10 ng/mL), insulin (5 ng/mL), retinoic acid (0.1 ng/mL), triiodothyronine (6.5 ng/mL), gentamycin (50 μg/mL) and amphotericin-B (50 ng/mL). Medium was changed every 48 hours until cells were 90% confluent. Cells were then passaged and seeded (8.25×10^5 cells/insert) onto polycarbonate Snapwell™ inserts (Costar, UK) in differentiation media containing 50% DMEM in BGEM with the same supplements as above but without triiodothyronine and a final retinoic acid concentration of 50 nM (all-trans retinoic acid; Sigma-Aldrich, UK). Cells were maintained submerged for the first 7 days in culture after which time they were exposed to an apical air interface for the remainder of the culture period. From the first day of establishment of an ALI, HBEC were fed with a DMEM:HAMS F-12 (1:1) media containing 2% Ultroser G (Pall BioSepra, France) with gentamycin (50 μg/mL) and amphotericin B (50 ng/mL). Cells were used for short-circuit current assay between days 14-21 after the establishment of the ALI. At all stages of culture, cells were maintained at 37° C. in 5% CO2 in an air incubator.
# Short-Circuit Current (ISC) Measurements
# Snapwell inserts were mounted in Costar Vertical Diffusion Chambers (Costar, UK) and were bathed with continuously gassed Ringer solution (5% CO2 in O2; pH 7.4) maintained at 37° C. containing (in mM): 120 NaCl, 25 NaHCO3, 3.3 KH2PO4, 0.8 K2HPO4, 1.2 CaCl2, 1.2 MgCl2 and 10 glucose. The solution osmolarity was always between 280-300 mOsm/kg H2O for all physiological salt solutions used. Cells were voltage clamped to 0 mV (model EVC4000, WPI). Transepithelial resistance (RT) was measured by applying a 2 mV pulse at 30 s intervals and calculating RT by Ohm's law. Data were recorded using a PowerLab workstation (ADlnstruments, UK).
# ENaC blocker compounds were added to the apical chamber from a 1000-fold stock solution (prepared in DMSO) to achieve a cumulative concentration response in terms of the inhibition of the basal ISC. At the completion of the concentration response, a supra-maximal concentration of amiloride (10 μM) was added. The concentration of test compound that induced a 50% inhibition of the total amiloride-sensitive ISC (IC50) was calculated using GraphPad Prism v6.05. The results are presented in Table 2, from which it can be seen that the compounds of the present invention have ENaC inhibiting activity.
row,Structure (SMILES),IC50
1,"CCn1c(CNC(=O)c2nc3cc[nH]c3nc2N)[n+](CC)c2ccc(OCCNC(=N)N)cc21 [Example 32, 2-[({3-amino-5H-pyrrolo[2,3-b]pyrazin-2-yl}formamido)methyl]-6-(2-carbamimidamidoethoxy)-1,3-diethyl-1H-1,3-benzodiazol-3-ium]",3 nM
2,"CCn1c(CNC(=O)c2nc3cc[nH]c3nc2N)[n+](CC)c2ccc(CCCNC(=N)N)cc21 [Example 33, 2-[({3-amino-5H-pyrrolo[2,3-b]pyrazin-2-yl}formamido)methyl]-6-(3-carbamimidamidopropyl)-1,3-diethyl-1H-1,3-benzodiazol-3-ium]",3 nM
3,"CCn1c(CNC(=O)c2nc3cc[nH]c3nc2N)[n+](CC)c2ccc(C(=O)O)cc21 [Example 34, 2-[({3-amino-5H-pyrrolo[2,3-b]pyrazin-2-yl}formamido)methyl]-6-carboxy-1,3-diethyl-1H-1,3-benzodiazol-3-ium]",160 nM
4,"CCn1c(CNC(=O)c2nc3cc[nH]c3nc2N)[n+](CC)c2ccc(C(=O)NCCCNC(=O)OC(C)(C)C)cc21 [Example 35, 2-[({3-amino-5H-pyrrolo[2,3-b]pyrazin-2-yl}formamido)methyl]-6-[(3-{[(tert-butoxy)carbonyl]amino}propyl)carbamoyl]-1,3-diethyl-1H-1,3-benzodiazol-3-ium formic acid]",5 nM
5,"CCn1c(CNC(=O)c2nc3cc[nH]c3nc2N)[n+](CC)c2ccc(C(=O)NC3CCN(C(=O)OC(C)(C)C)CC3)cc21 [Example 36, 2-[({3-amino-5H-pyrrolo[2,3-b]pyrazin-2-yl}formamido)methyl]-6-({1-[(tert-butoxy)carbonyl]piperidin-4-yl}carbamoyl)-1,3-diethyl-1H-1,3-benzodiazol-3-ium]",3 nM
6,"CCn1c(CNC(=O)c2nc3cc[nH]c3nc2N)[n+](CC)c2ccc(C(=O)NCCN3CCC(NC(=O)OC(C)(C)C)CC3)cc21 [Example 38, 2-[({3-amino-5H-pyrrolo[2,3-b]pyrazin-2-yl}formamido)methyl]-6-{[2-(4-{[(tert-butoxy)carbonyl]amino}piperidin-1-yl)ethyl]carbamoyl}-1,3-diethyl-1H-1,3-benzodiazol-3-ium]",9 nM
7,"CCn1c(CNC(=O)c2nc3cc[nH]c3nc2N)[n+](CC)c2ccc(C(=O)NCCCN)cc21 [Example 39, 2-[({3-amino-5H-pyrrolo[2,3-b]pyrazin-2-yl}formamido)methyl]-6-[(3-aminopropyl)carbamoyl]-1,3-diethyl-1H-1,3-benzodiazol-3-ium]",15 nM
8,"CCn1c(CNC(=O)c2nc3cc[nH]c3nc2N)[n+](CC)c2ccc(C(=O)NC3CCNCC3)cc21 [Example 40, 2-[({3-amino-5H-pyrrolo[2,3-b]pyrazin-2-yl}formamido)methyl]-1,3-diethyl-6-[(piperidin-4-yl)carbamoyl]-1H-1,3-benzodiazol-3-ium]",7 nM
9,"CCn1c(CNC(=O)c2nc3cc[nH]c3nc2N)[n+](CC)c2ccc(C(=O)N3CCC(N)CC3)cc21 [Example 41, 2-[({3-amino-5H-pyrrolo[2,3-b]pyrazin-2-yl}formamido)methyl]-6-(4-aminopiperidine-1-carbonyl)-1,3-diethyl-1H-1,3-benzodiazol-3-ium]",11 nM
10,"CCn1c(CNC(=O)c2nc3cc[nH]c3nc2N)[n+](CC)c2ccc(C(=O)NCCN3CCC(N)CC3)cc21 [Example 42, 2-[({3-amino-5H-pyrrolo[2,3-b]pyrazin-2-yl}formamido)methyl]-6-{[2-(4-aminopiperidin-1-yl)ethyl]carbamoyl}-1,3-diethyl-1H-1,3-benzodiazol-3-ium]",10 nM
11,"CCn1c(CNC(=O)c2nc3cc[nH]c3nc2N)[n+](CC)c2ccc(OCCN(C[C@H](O)[C@@H](O)[C@H](O)[C@H](O)CO)C[C@H](O)[C@@H](O)[C@H](O)[C@H](O)CO)cc21 [Example 43, 2-[({3-amino-5H-pyrrolo[2,3-b]pyrazin-2-yl}formamido)methyl]-5-(2-{bis[(2S,3R,4R,5R)-2,3,4,5,6-pentahydroxyhexyl]amino}ethoxy)-1,3-diethyl-1H-1,3-benzodiazol-3-ium]",51 nM
12,"CCn1c(CNC(=O)c2nc3cc[nH]c3nc2N)[n+](CC)c2ccc(OCCCN(C[C@H](O)[C@@H](O)[C@H](O)[C@H](O)CO)C[C@H](O)[C@@H](O)[C@H](O)[C@H](O)CO)cc21 [Example 44, 2-[({3-amino-5H-pyrrolo[2,3-b]pyrazin-2-yl}formamido)methyl]-5-(3-{bis[(2S,3R,4R,5R)-2,3,4,5,6-pentahydroxyhexyl]amino}propoxy)-1,3-diethyl-1H-1,3-benzodiazol-3-ium]",21 nM
13,"CCn1c(CNC(=O)c2nc3cc[nH]c3nc2N)[n+](CC)c2cc(CCCN(C[C@H](O)[C@@H](O)[C@H](O)[C@H](O)CO)C[C@H](O)[C@@H](O)[C@H](O)[C@H](O)CO)ccc21 [Example 45, 2-[({3-amino-5H-pyrrolo[2,3-b]pyrazin-2-yl}formamido)methyl]-5-(3-{bis[(2S,3R,4R,5R)-2,3,4,5,6-pentahydroxyhexyl]amino}propyl)-1,3-diethyl-1H-1,3-benzodiazol-3-ium]",14 nM
